Structures can show the parent of a compound that is named as a salt.

The results in this text go back to patent US12029776B2, “Composition for treating cancer and use and medicament thereof” (NEWISH TECHNOLOGY (BEIJING) CO., LTD., priority 2020, dated 2024).

The test system of the first assay is transplanted tumor of the liver cancer cell line Hep3B. The experiment in a line: Efficacy on the transplanted tumor in nude mice. The settings on record: FIG. 10.
Experimental: Hep3B cells were cultured with 10% serum DMEM medium and were digested and counted after they grew into the logarithmic phase. […] Therefore, the present invention adopted a dose of 5*10e6 cells per nude mouse, and administration was performed in groups after the tumors grew into an average volume of 100 mm^3 in about 21 days. The administration was divided into a solvent control group, an apatinib 50 mg/kg oral administration group, a sotagliflozin 20 mg/kg intraperitoneal injection group, and a combination group of simultaneous apatinib 50 mg/kg oral administration and sotagliflozin 20 mg/kg intraperitoneal injection. The administration cycle was once every other day, and the tumor volumes were measured every Tuesday and Friday and calculated according to the formula V=a*b^2/2 (a is the measured long diameter of the tumor, b is the measured short diameter of the tumor). A graph was mapped using Graphpad prism 5 and the measurement results were analyzed statistically.
Consider `CCOc1ccc(Cc2cc([C@@H]3O[C@H](SC)[C@@H](O)[C@H](O)[C@H]3O)ccc2Cl)cc1` [sotagliflozin], for which the “sensitisation of the transplanted tumor to the growth inhibitory effect of apatinib” value is “sensitive to the growth inhibitory effect of apatinib”.

Another assay has as its system liver cancer cell line. The experiment in a line: VEGFR2 inhibitors in combination with the SGLT1 inhibitor on the liver cancer cell line (Example 2). It is filed as cell-based. The settings on record: combined with SGLT1 inhibitor sotagliflozin, FIG. 11-1 to 11-30. As for the experimental part:
Dimethyl sulfoxide (DMSO) can dissolve formazan in cells, and its light absorption value measured at 570 nm wavelength with an enzyme-linked immunodetector can indirectly reflect the number of living cells. Cell growth was determined by 3-(4,5-dimethylthiazol-2-yl)-2,5-diphenyltetrazolium bromide (MTT) assay in a 96-well plate. Specifically, the cells were digested and counted, and then resuspended into a system containing 5000 cells per 200 μL of culture medium and seeded in each well of a 96-well plate. The next day, the medium was replaced with a medium containing different concentrations of sotagliflozin, apatinib, lenvatinib, and the composition of them. After 48 or 72 hours of incubation with the drugs, 20 μL of MTT reagent was added to each well and incubated for 2 hours. After discarding the medium, the formazan deposit in the cells was dissolved in 100 μL of DMSO. The absorbance was measured at 570 nm by a microplate reader. Samples were used in quadruplicate in each group.
For the compound `COc1cc2nccc(Oc3ccc(NC(=O)NC4CC4)c(Cl)c3)c2cc1C(N)=O` [lenvatinib mesylate], the “tumor suppressive effect in combination with the SGLT1 inhibitor compared with single agent” value is listed as “better tumor suppressive effect than as a single agent”. Take `COC(=O)c1ccc2c(c1)NC(=O)/C2=C(\Nc1ccc(N(C)C(=O)CN2CCN(C)CC2)cc1)c1ccccc1` [nintedanib]: the “tumor suppressive effect in combination with the SGLT1 inhibitor compared with single agent” value is “better tumor suppressive effect than as a single agent”.

On to cediranib maleate, for which the “tumor suppressive effect in combination with the SGLT1 inhibitor compared with single agent” value is listed as “better tumor suppressive effect than as a single agent”. The same measure, in the same setting: in the case of vitamin E it was “better tumor suppressive effect than as a single agent”; in that of `CCS(=O)(=O)O.COC(=O)c1ccc2c(c1)NC(=O)/C2=C(\Nc1ccc(N(C)C(=O)CN2CCN(C)CC2)cc1)c1ccccc1` [nintedanib ethanesulfonate salt], “better tumor suppressive effect than as a single agent”. Same read-out and setting: in the case of `O=C1c2c(O)cc(O)cc2O[C@H](c2ccc(O)c(O)c2)[C@H]1O` [taxifolin] it was “better tumor suppressive effect than as a single agent”; in that of `COc1cc2c(Oc3ccc4[nH]c(C)cc4c3F)ncnc2cc1OCCCN1CCCC1` [cediranib], “better tumor suppressive effect than as a single agent”; in that of `COc1cc2nccc(Oc3ccc(NC(=O)C4(C(=O)Nc5ccc(F)cc5)CC4)cc3)c2cc1OC` [cabozantinib malate], “better tumor suppressive effect than as a single agent”.

Consider `CNC(=O)c1c(C)oc2cc(Oc3ncnc4cc(OC)c(OC)cc34)ccc12` [fruquintinib], for which the “tumor suppressive effect in combination with the SGLT1 inhibitor compared with single agent” value is reported as “better tumor suppressive effect than as a single agent”. On the same count and under the same terms, in the case of `Cc1cc(Nc2cc(N3CCN(C)CC3)nc(/C=C/c3ccccc3)n2)n[nH]1.O=C(O)C(O)C(O)C(=O)O` [ENMD-2076 L-(+)-tartaric acid] it was “better tumor suppressive effect than as a single agent”; in that of `COc1cc2c(Oc3ccc4[nH]c(C)cc4c3F)ccnc2cc1OCC1(N)CC1` [anlotinib (AL3818) dihydrochloride], “better tumor suppressive effect than as a single agent”; in that of `Cc1cc2c(F)c(Oc3ncnn4cc(OC[C@@H](C)O)c(C)c34)ccc2[nH]1` [brivanib], “better tumor suppressive effect than as a single agent”.

`CNC(=O)c1cc(Oc2ccc(NC(=O)Nc3ccc(Cl)c(C(F)(F)F)c3)c(F)c2)ccn1` [regorafenib]: the “tumor suppressive effect in combination with the SGLT1 inhibitor compared with single agent” value was “better tumor suppressive effect than as a single agent”.

With `COCCNCc1ccc(-c2cc3nccc(Oc4ccc(NC(=O)C5(C(=O)Nc6ccc(F)cc6)CC5)cc4F)c3s2)nc1` [sitravatinib], the “tumor suppressive effect in combination with the SGLT1 inhibitor compared with single agent” value is on record as “better tumor suppressive effect than as a single agent”.

As for `Cc1cc2c(F)c(Oc3ncnn4cc(OC[C@@H](C)OC(=O)[C@H](C)N)c(C)c34)ccc2[nH]1` [brivanib alaninate], the “tumor suppressive effect in combination with the SGLT1 inhibitor compared with single agent” value is reported as “better tumor suppressive effect than as a single agent”. On the same count and under the same terms, with `Cc1cc(Nc2cc(N3CCN(C)CC3)nc(/C=C/c3ccccc3)n2)n[nH]1` [ENMD-2076] the entry was “better tumor suppressive effect than as a single agent”; with `CNC(=O)c1cc(COc2nnc(Nc3ccc(Cl)cc3)c3ccoc23)ccn1` [telatinib], “better tumor suppressive effect than as a single agent”.
